According to PubChem BioAssay AID1963870 (Molecular Pharmacology Branch, DTP, NCI, 2024):

Test system: 292921-168-R-J2-PDC KRAS tumor spheroid viability
Assay: Anticancer human tumor 292921-168-R-J2-PDC patient-derived pancreatic carcinoma cell line growth inhibition [KRAS2]
Settings: spheroids with HUVEC and MSC; for IC50: curve of first compound; for viability, T/C: stronger effect = lower value
Outline: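 Combination screen of spheroid viability in tumor-cell co-cultures with endothelial (HUVEC) and mesenchymal stem cell stroma. Each agent was tested in half-log dilutions, topping at clinical Cmax or at 10 microM without a known Cmax.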

[1] = second compound 0.1 µM, first compound 0.0316 µM
[2] = second compound 0.1 µM, first compound 0.1 µM
[3] = second compound 0.316 µM, first compound 0.0316 µM
[4] = second compound 0.316 µM, first compound 0.1 µM
[5] = second compound 1 µM, first compound 0.0316 µM
[6] = second compound 1 µM, first compound 0.1 µM
[7] = second compound 3.16 µM, first compound 0.0316 µM
[8] = second compound 3.16 µM, first compound 0.1 µM
[9] = second compound 10 µM, first compound 0.0316 µM
[10] = second compound 10 µM, first compound 0.1 µM
[11] = second compound 0.1 µM, first compound 0.316 µM
[12] = second compound 0.1 µM, first compound 1 µM
[13] = second compound 0.1 µM, first compound 3.16 µM
[14] = second compound 0.1 µM, first compound 10 µM
[15] = second compound 0.316 µM, first compound 0.316 µM
[16] = second compound 0.316 µM, first compound 1 µM
[17] = second compound 0.316 µM, first compound 3.16 µM
[18] = second compound 0.316 µM, first compound 10 µM
[19] = second compound 1 µM, first compound 0.316 µM
[20] = second compound 1 µM, first compound 1 µM
[21] = second compound 1 µM, first compound 3.16 µM
[22] = second compound 1 µM, first compound 10 µM
[23] = second compound 3.16 µM, first compound 0.316 µM
[24] = second compound 3.16 µM, first compound 1 µM
[25] = second compound 3.16 µM, first compound 3.16 µM
[26] = second compound 3.16 µM, first compound 10 µM
[27] = second compound 10 µM, first compound 0.316 µM
[28] = second compound 10 µM, first compound 1 µM
[29] = second compound 10 µM, first compound 3.16 µM
[30] = second compound 10 µM, first compound 10 µM
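Further: drug exposure lasted seven days after spheroids formed for three days.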
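Wherever viability, T/C is given: percent of DMSO vehicle control viability which is 100%.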

Row | Compound | IC50 (second compound 0.1 µM) [nM] | IC50 (second compound 0.316 µM) [nM] | IC50 (second compound 1 µM) [nM] | IC50 (second compound 3.16 µM) [nM] | IC50 (second compound 10 µM) [nM] | viability, T/C [1] [%] | viability, T/C [2] [%] | viability, T/C [3] [%] | viability, T/C [4] [%] | viability, T/C [5] [%] | viability, T/C [6] [%] | viability, T/C [7] [%] | viability, T/C [8] [%] | viability, T/C [9] [%] | viability, T/C [10] [%] | viability, T/C [11] [%] | viability, T/C [12] [%] | viability, T/C [13] [%] | viability, T/C [14] [%] | viability, T/C [15] [%] | also measured
1 | CN(C)C/C=C/C(=O)Nc1cc2c(Nc3ccc(F)c(Cl)c3)ncnc2cc1O[C@H]1CCOC1 + COc1cc2nc(C)nc(NC(C)c3cc(N)cc(C(F)(F)F)c3)c2cc1OC1CCOC1 | > 100 | > 100 | > 100 | 30.4 | 1.18 | 85.4 | 74.5 | 66.1 | 58.1 | 84.9 | 75.2 | 52.5 | 44.5 | 45.6 | 47.8 |  |  |  |  |  | viability, T/C (second compound 0.1 µM, first compound 0.000316 µM): 94%; viability, T/C (second compound 0.1 µM, first compound 0.001 µM): 91.5%; viability, T/C (second compound 0.1 µM, first compound 0.00316 µM): 84.8%; viability, T/C (second compound 0.1 µM, first compound 0.01 µM): 88.7%; viability, T/C (second compound 0.316 µM, first compound 0.000316 µM): 87.5%; viability, T/C (second compound 0.316 µM, first compound 0.001 µM): 74.7%; viability, T/C (second compound 0.316 µM, first compound 0.00316 µM): 72.7%; viability, T/C (second compound 0.316 µM, first compound 0.01 µM): 73.5%; viability, T/C (second compound 1 µM, first compound 0.000316 µM): 87%; viability, T/C (second compound 1 µM, first compound 0.001 µM): 82.2%; viability, T/C (second compound 1 µM, first compound 0.00316 µM): 83.7%; viability, T/C (second compound 1 µM, first compound 0.01 µM): 86.8%; viability, T/C (second compound 3.16 µM, first compound 0.000316 µM): 62.8%; viability, T/C (second compound 3.16 µM, first compound 0.001 µM): 46.8%; viability, T/C (second compound 3.16 µM, first compound 0.00316 µM): 57%; viability, T/C (second compound 3.16 µM, first compound 0.01 µM): 54.9%; viability, T/C (second compound 10 µM, first compound 0.000316 µM): 50%; viability, T/C (second compound 10 µM, first compound 0.001 µM): 52.2%; viability, T/C (second compound 10 µM, first compound 0.00316 µM): 50.7%; viability, T/C (second compound 10 µM, first compound 0.01 µM): 45.5%
2 | CC1(C)CCC(CN2CCN(c3ccc(C(=O)NS(=O)(=O)c4ccc(NCC5CCOCC5)c([N+](=O)[O-])c4)c(Oc4cnc5[nH]ccc5c4)c3)CC2)=C(c2ccc(Cl)cc2)C1 + C=CC(=O)N1CCN(c2nc(=O)n(-c3c(C)ccnc3C(C)C)c3nc(-c4c(O)cccc4F)c(F)cc23)C(C)C1 | 2270 | 2190 | 2020 | 1260 | < 31.6 | 107 | 107 | 108 | 111 | 113 | 106 | 81.5 | 80.8 | 28.4 | 18.8 | 106 | 100 | 29.5 | 8.37 | 94.3 | viability, T/C [16]: 114%; viability, T/C [17]: 23.6%; viability, T/C [18]: 8.55%; viability, T/C [19]: 102%; viability, T/C [20]: 99.5%; viability, T/C [21]: 18.6%; viability, T/C [22]: 9.16%; viability, T/C [23]: 67.8%; viability, T/C [24]: 59.8%; viability, T/C [25]: 13.9%; viability, T/C [26]: 10.9%; viability, T/C [27]: 21.6%; viability, T/C [28]: 20.5%; viability, T/C [29]: 7.43%; viability, T/C [30]: 8.6%
3 | CC1(C)CCC(CN2CCN(c3ccc(C(=O)NS(=O)(=O)c4ccc(NCC5CCOCC5)c([N+](=O)[O-])c4)c(Oc4cnc5[nH]ccc5c4)c3)CC2)=C(c2ccc(Cl)cc2)C1 + COc1cc2nc(C)nc(NC(C)c3cc(N)cc(C(F)(F)F)c3)c2cc1OC1CCOC1 | 2090 | 2180 | 1820 | 1380 | < 31.6 | 105 | 94.4 | 88.9 | 81 | 84.1 | 80.5 | 70.8 | 70.6 | 36.8 | 31 | 91.9 | 93.4 | 25.6 | 14.3 | 88.9 | viability, T/C [16]: 91.6%; viability, T/C [17]: 32.1%; viability, T/C [18]: 8.02%; viability, T/C [19]: 83%; viability, T/C [20]: 85.8%; viability, T/C [21]: 19.5%; viability, T/C [22]: 8.25%; viability, T/C [23]: 73.2%; viability, T/C [24]: 63.4%; viability, T/C [25]: 15.6%; viability, T/C [26]: 8.28%; viability, T/C [27]: 33.6%; viability, T/C [28]: 27.3%; viability, T/C [29]: 7.17%; viability, T/C [30]: 6.32%
